# Source: US5574023A, “Intramolecularly crosslinked (1→3)-β-D-glucans” (Seikagaku Kogyo Kabushiki Kaisha (Seikagaku Corporation), priority 1991, dated 1996)
# Tests used:
# [1] = Single helix conformation content by high-resolution 13C-NMR of hydrated solid sample; format: physicochemical; conditions: for Single helix conformation % retention after one month: aqueous solution or suspension stored aseptically at 4° C. for 1 month, versus initial value; for Single helix conformation content in hydrated solid sample: immediately after synthesis, 13C-NMR
# Procedure: Each sample was deprived of water by lyophilization and then maintained in saturated water vapor, and the hydrated solid sample obtained was subjected to high-resolution ^13 C-NMR spectrometry. The single helix conformation content in the (1→3)-β-D-glucan in the sample was calculated by comparing the chemical shift peak heights for each carbon atom with the peak heights of the chemical shifts shown in Table 1 for other higher-order structure carbon atoms.
# The single helix conformation contents thus obtained from the chemical shifts of C-2, C-3 and C-5 and the respective peak heights are shown in Table 2.
# Furthermore, aqueous solutions or suspensions were stored in aseptic condition at 4° C. for 1 month and then tested for single helix conformation content in the same manner. The data obtained were compared with the initial values and the rates of retention of the respective single helix conformations contained were calculated. The uncrosslinked, single helix conformation schizophyllan, when subjected to solid-phase ^13 C-NMR spectrometry immediately after formation of said conformation, gave a single helix conformation content of 60% but, after one-month storage, the content of said structure was only 6% (10% retention). This is due to advanced transformation from the single helix conformation to other higher-order structures.
# [2] = test system: Horseshoe crab lysate factor G; experiment: Factor G activating ability (pNA release from Boc-Leu-Gly-Arg-pNA); format: biochemical; conditions: for % Retention of factor G activating ability after one month: aqueous solution or suspension stored one month at 4° C., versus initial value
# Procedure: For each sample to be tested, a reaction mixture (200 μl) containing the sample, water and the ingredients mentioned below was prepared. […]
# This reaction mixture was incubated at 37° C. for 30 minutes and, then, p-nitroaniline (pNA) liberated was quantitated. Thus, to the sample after incubation were added 0.5 ml each of 0.04% sodium nitrite (solution in 0.48M hydrochloric acid), 0.3% ammonium sulfamate and 0.07% N-1-naphthylethylenediamine dihydrichloride in that order for causing a change in color tone due to diazo coupling, and the absorbance at 545 nm (A545) was determined.
# This measurement was performed for an aqueous solution or suspension of each substance immediately after synthesis thereof. The same measurement was also performed after one month storage of the sample at 4° C., the minimum concentration (C, g/ml) at which the absorbance at 545 nm amounted to 0.1 was determined, and the factor G activating ability was expressed in terms of -log C (g/ml) value. By comparing this value with the initial value, the rate of retention of factor G activating ability was calculated.
# [3] = test system: Sarcoma 180 cells; experiment: Tumor inhibition rate, Sarcoma 180 transplanted subcutaneously in mice; format: in vivo, CLJ-ICR female mice; conditions: intraperitoneal, 10 times (days 1-5 and 7-11), tumor weight on day 13 versus untreated control; for % Tumor inhibition, after one month: sample administered after one month storage at 4° C.; for % Tumor inhibition, initial: sample administered immediately after preparation
# Procedure: Sarcoma 180 cells (5×10^6 cells) were transplanted subcutaneously into the groin of each of 6-week-old CLJ-ICR female mice weighing about 25 g. The intramolecularly crosslinked, single helix conformation (1→3)-β-D-glucans of the invention as obtained in Examples 1-10 and the uncrosslinked, single helix conformation schizophyllan of Comparative Example were respectively administered to the mice at 24 hours after transplantation (day 1) and thereafter once daily on days 1-5 and 7-11 (10 times in total). Thus, each sample was comminuted in a mortar, suspended or dissolved in physiological saline for injection, sterilized in an autoclave at 121° C. for 20 minutes, and then intraperitoneally administered. In a control group, no glucan was given to mice.
# On day 13, tumor nodules were excised and weighed, and their weights were compared with the tumor weight in the untreated control group for calculating tumor inhibition rates.
# In the above test, sample solutions or suspensions were administered immediately after preparation on one hand and, on the other, the solutions or suspensions were administered after one month storage at 4° C.
Single helix conformation % retention after one month [1],Single helix conformation content in hydrated solid sample [1],Substance,% Retention of factor G activating ability after one month [2],"% Tumor inhibition, after one month [3]","% Tumor inhibition, initial [3]","Initial factor G activating ability, -log C (minimum concentration at which A545 amounted to 0.1) ([2]; immediately after synthesis, 37° C., 30 minutes)"
70%,65%,Glutardialdehyde-crosslinked hydrazinocurdlan [Example 2],20%,91.1%,98.2%,–
100%,75%,Dodecamethylenediamine-crosslinked aldehyde schizophyllan [Example 4],100%,98.4%,100%,–
53%,23%,Glutardialdehyde-crosslinked hydrazino yeast glucan [Example 9],20%,73.0%,90.0%,–
60%,55%,Pimelic acid-crosslinked hydrazinoschizophyllan [Example 5],10%,65.6%,95.3%,–
80%,70%,"2,3,4-Trihydroxyadipodialdehyde-crosslinked hydrazinocurdlan [Example 3]",20%,92.1%,100%,–
70%,60%,Hexamethylenedihydrazine-crosslinked carboxymethylated curdlan [Example 8],10%,75.3%,98.2%,–
80%,70%,Glutardialdehyde-crosslinked hydrazinoschizophyllan [Example 7],25%,95.0%,100%,–
90%,70%,"2,3,4-Trihydroxyadipodihydrazide-crosslinked aldehyde schizophyllan [Example 6]",30%,96.1%,100%,–
60%,70%,Glutardialdehyde-crosslinked hydrazinocurdlan (no receptor added) [Example 1],10%,70.0%,98.0%,11 -log C (g/ml)
52%,35%,Glutardialdehyde-crosslinked hydrazinolentinan [Example 10],20%,80.0%,96.0%,–
